{
  "source": "patent US20170042148A1",
  "about": "“USE OF A DICARBOXYLIC ACID TO CONTROL THE GROWTH OF HOLOPARASITIC OR HEMIPARASITIC PLANTS” (UNIVERSITE CLAUDE BERNARD LYON I, priority 2014, published 2017)",
  "key": {"Striga hermontica [1]": {"tested_on": "Striga hermontica", "assay": "Herbicidal effect on Striga hermontica growth in a microtiter plate (procaulome length)", "assay_type": "in vivo", "conditions": "for Striga inhibition: 2 mg/mL of buffer, procaulome size after 3 days at 30° C. with GR24", "method": "The activity of the diacids on the parasitic plants Striga and Orobanche was tested by preparing solutions of the selected diacid in water or in phosphate buffer (50 mM, pH 7) at concentrations of 1 to 20 mg/mL.\n1. In a 12-well microtiter plate, filter papers (Whatman 3) are placed at the bottom of the wells and moistened with sterile water. About 30 sterilized seeds (rinsed with 70% ethanol, then 1% (w/v) Ca(ClO)2 and Tween® 20, then thoroughly with water) of the holo- or hemiparasitic plants are placed, in each well, on the surface of the filter papers. After 10 days of incubation at 30° C. and in the dark, increasing amounts of a diacid or of culture supernatant are added, in the presence of a germination stimulant, GR24. After 3 days of incubation at 30° C., the development of the parasitic plants in the presence of a diacid or of culture supernatant is compared to the negative control (water, phosphate buffer or sterile culture medium), with a macroscope coupled to a camera. The length of the procaulomes (radicles) of the holo- or hemiparasitic plants is measured in order to express the phytotoxic capacity of the tested products."}, "Striga hermontica [2]": {"tested_on": "Striga hermontica", "assay": "Emergence of Striga seedlings in soil mesocosms with sorghum", "assay_type": "in vivo", "conditions": "soil mesocosm with sorghum, after 2 months", "method": "2. Striga hermontica seeds (about 100 seeds/pot) and sorghum seeds (1 seed/pot) were introduced simultaneously into soil mesocosms, in the presence of increasing amounts of malic acid (2 and 20 g/L) or of culture supernatant, then grown in a greenhouse or a plot. The emergence of Striga seedlings is estimated visually, after 2 months of incubation. Phytotoxic capacity is estimated by comparison with a control without added malic acid or culture supernatant. A decrease of 22% in the number of Striga seedlings having emerged, compared to the control condition, is observed in the presence of 2 g/L malic acid and of 90% in the presence of 20 g/L malic acid. In the presence of the bacterial supernatant, a decrease of 58% in the number of Striga compared to the control condition was observed."}},
  "data": [
    {"smiles": "O=C(O)CC(O)C(=O)O", "note": "(racemic) [DL-Malic acid]", "values": [
      {"measurement": "Striga inhibition", "setting": "Striga hermontica [1]", "value": "+ (weak inhibition (procaulome size between 0.2 and 0.8 mm))"}
    ]},
    {"smiles": "O=C(O)C#CC(=O)O", "note": "[Acetylene dicarboxylic acid]", "values": [
      {"measurement": "Striga inhibition", "setting": "Striga hermontica [1]", "value": "++ (strong inhibition (procaulome size < 0.2 mm))"}
    ]},
    {"smiles": "O=C(O)CCCC(=O)O", "note": "[Glutaric acid]", "values": [
      {"measurement": "Striga inhibition", "setting": "Striga hermontica [1]", "value": "++ (strong inhibition (procaulome size < 0.2 mm))"}
    ]},
    {"smiles": "O=C(O)/C=C\\C(=O)O", "note": "[Maleic acid]", "values": [
      {"measurement": "Striga inhibition", "setting": "Striga hermontica [1]", "value": "++ (strong inhibition (procaulome size < 0.2 mm))"}
    ]},
    {"smiles": "O=C(O)C[C@H](O)C(=O)O", "note": "[L-Malic acid]", "values": [
      {"measurement": "Striga inhibition", "setting": "Striga hermontica [1]", "value": "++ (strong inhibition (procaulome size < 0.2 mm))"},
      {"measurement": "effect on procaulome growth (FIG. 1)", "setting": "Striga hermontica [1]; supernatant of strain grown in Nfb*, L-malic acid 2 mg/mL in phosphate buffer", "value": "inhibitory effect"}
    ]},
    {"smiles": "O=C(O)CC(O)C(=O)O", "note": "(stereo not shown) [malic acid]", "values": [
      {"measurement": "decrease in the number of Striga seedlings having emerged, compared to the control condition", "setting": "Striga hermontica [2]; 2 g/L malic acid", "value": 22, "unit": "%"},
      {"measurement": "decrease in the number of Striga seedlings having emerged, compared to the control condition", "setting": "Striga hermontica [2]; 20 g/L malic acid", "value": 90, "unit": "%"}
    ]},
    {"smiles": "O=C(O)C(=O)O", "note": "[Oxalic acid]", "values": [
      {"measurement": "Striga inhibition", "setting": "Striga hermontica [1]", "value": "++ (strong inhibition (procaulome size < 0.2 mm))"}
    ]},
    {"smiles": "O=C(O)CC(=O)O", "note": "[Malonic acid]", "values": [
      {"measurement": "Striga inhibition", "setting": "Striga hermontica [1]", "value": "++ (strong inhibition (procaulome size < 0.2 mm))"}
    ]}
  ]
}
